Experimental data reported in patent publication US8557844B2, “Substrate reduction therapy” (The Chancellor, Masters and Scholars of the University of …, priority 2007, dated 2013).
Entries after “also recorded” stand apart in the source; their conditions may differ.

Columns and labels:
[1] = system: free cholesterol storage and abnormal lipid endocytosis; conditions: cited from earlier work
RAW mouse macrophages [2] = assay: Cholesterol levels (filipin) in RAW cells treated with AY9944; format: cell-based; conditions: for cholesterol levels (filipin): 1 mM AY9944 in LPDS medium
Experimental: (§1) RAW mouse macrophages grown in medium supplemented with LPDS for 5 days to elevate endogenous cholesterol biosynthesis were treated with […] AY9944 in medium supplemented with lipoprotein deficient serum (LPDS) for a further 5 or 10 days to induce storage of 7-DHC. […] This correlated with abnormal transport of a fluorescent GSL analogue of lactosylceramide (LacCer)—BODIPY-LacCer.
(§2) FIG. 4 consists of micrographs which together show the induction of an NPC phenotype in cholesterol null RAW cells. All RAW cells were grown in medium supplemented with LPDS for 5 days (controls) to reduce exogenously derived cholesterol prior to addition of 1 μM AY9944 to inhibit endogenous cholesterol synthesis for a further 5 days or 10 days (as indicated). Alterations in sphingolipid trafficking were measured in live cells using BODIPY-LacCer (lower panels), cholesterol levels in fixed cells were measured with filipin (upper panels). Endocytic cholesterol storage in cholesterol depleted cells was induced by growth in medium supplemented with 10% FCS for a further 24 h. For each condition n=2, images are representative of at least 10 captured fields, scale bar=5 μm.

[3] = target: T1, 3β-hydroxysterol Δ7-reductase (Mus musculus, UniProt O88455); conditions: cited from earlier work
T1 construct: RAW mouse macrophages grown in medium supplemented with LPDS for 5 days to elevate endogenous cholesterol biosynthesis; endogenous in cells; host or cells: RAW mouse macrophages
T1 sequence (O88455 1-471): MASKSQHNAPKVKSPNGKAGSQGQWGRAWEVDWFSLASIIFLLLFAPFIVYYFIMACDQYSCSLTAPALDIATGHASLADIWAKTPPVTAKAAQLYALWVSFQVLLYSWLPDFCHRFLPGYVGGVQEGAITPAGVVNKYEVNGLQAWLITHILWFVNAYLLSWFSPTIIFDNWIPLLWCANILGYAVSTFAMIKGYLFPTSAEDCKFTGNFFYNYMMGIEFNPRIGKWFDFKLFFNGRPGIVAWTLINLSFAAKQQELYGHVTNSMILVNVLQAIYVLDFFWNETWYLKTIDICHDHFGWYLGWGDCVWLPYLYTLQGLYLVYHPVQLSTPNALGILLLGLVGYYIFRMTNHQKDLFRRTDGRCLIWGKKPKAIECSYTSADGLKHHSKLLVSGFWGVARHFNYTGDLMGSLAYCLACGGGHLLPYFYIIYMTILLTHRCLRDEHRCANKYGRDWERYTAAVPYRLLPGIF

RAW mouse macrophages [4] = assay: BODIPY-LacCer transport in RAW cells treated with AY9944; format: cell-based
Experimental: as §1, §2

[5] = cited from earlier work
[6] = interim data after 12 months of a 2-year trial; cited from earlier work
mammalian cells = conditions: liposomes of dioleoylphosphatidylethanolamine and cholesteryl hemisuccinate; cited from earlier work
[7] = system: NPC1 null (CT43) CHO cells; conditions: NB-DNJ treatment; cited from earlier work
[8] = system: peripheral blood B lymphocytes; conditions: NPC patient, B cells over 6 months; cited from earlier work
[9] = system: NPC1 null (CT43) CHO cells; conditions: NB-DNJ treatment; cited from earlier work; remark: listed apart in the source
GSL levels = conditions: mice; cited from earlier work
sialyltransferase = conditions: cited from earlier work
[10] = target: T2, human α-1,3-fucosyltransferase V (Homo sapiens, UniProt Q11128); conditions: in the presence of guanosine diphosphate (GDP); cited from earlier work
T2 sequence (Q11128 1-374): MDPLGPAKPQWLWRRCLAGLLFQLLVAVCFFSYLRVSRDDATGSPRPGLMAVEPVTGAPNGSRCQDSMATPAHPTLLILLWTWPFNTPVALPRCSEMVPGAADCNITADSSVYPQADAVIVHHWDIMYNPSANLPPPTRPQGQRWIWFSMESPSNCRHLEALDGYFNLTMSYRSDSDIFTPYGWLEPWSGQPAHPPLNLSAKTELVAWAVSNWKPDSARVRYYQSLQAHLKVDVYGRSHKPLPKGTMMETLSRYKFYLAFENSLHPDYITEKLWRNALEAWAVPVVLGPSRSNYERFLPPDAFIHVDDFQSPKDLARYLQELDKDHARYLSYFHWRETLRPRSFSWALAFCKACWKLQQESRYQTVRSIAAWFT

rat recombinant α-2,3-ST = conditions: rat recombinant enzyme; read-out: IC(50), α-2,3-ST; cited from earlier work
rat recombinant α-2,6-ST = target: T3, rat recombinant α-2,6-ST (Rattus norvegicus, UniProt P13721); conditions: rat recombinant enzyme; read-out: IC(50), α-2,6-ST; cited from earlier work
T3 sequence (P13721 1-403): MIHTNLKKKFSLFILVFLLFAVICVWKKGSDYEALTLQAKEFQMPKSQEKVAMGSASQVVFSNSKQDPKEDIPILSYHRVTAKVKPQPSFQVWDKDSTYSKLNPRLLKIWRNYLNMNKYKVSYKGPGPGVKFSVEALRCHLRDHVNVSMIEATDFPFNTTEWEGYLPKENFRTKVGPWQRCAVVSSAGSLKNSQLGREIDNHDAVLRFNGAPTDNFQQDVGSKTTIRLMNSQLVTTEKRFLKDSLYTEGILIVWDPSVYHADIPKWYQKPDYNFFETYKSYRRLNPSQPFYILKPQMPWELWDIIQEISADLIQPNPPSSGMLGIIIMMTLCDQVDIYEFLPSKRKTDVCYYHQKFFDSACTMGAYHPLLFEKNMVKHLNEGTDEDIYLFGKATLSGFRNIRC

CC(C)CCC[C@@H](C)[C@H]1CC[C@H]2[C@@H]3C(=O)C=C4C[C@@H](O)CC[C@]4(C)[C@H]3CC[C@]12C [7-ketocholesterol]
free cholesterol storage and lipid endocytosis [1]: induce free cholesterol storage and abnormal lipid endocytosis

Clc1ccccc1CNCC1CCC(CNCc2ccccc2Cl)CC1 (centres unmarked) [AY9944]
cholesterol levels (filipin) (RAW mouse macrophages [2]; 5 days): slight decrease in cholesterol levels
cholesterol levels (filipin) (RAW mouse macrophages [2]; 10 days): markedly reduced
localisation of exogenously derived cholesterol (RAW mouse macrophages [2]; 10 day AY9944, then medium with 10% FCS): exogenously derived cholesterol became trapped in punctate LE
7-DHC level [3]: accumulation of 7-DHC
BODIPY-LacCer transport (RAW mouse macrophages [4]; 5 days post AY9944, 30 min pulse, 90 min chase): transported to the Golgi
BODIPY-LacCer transport (RAW mouse macrophages [4]; 10 days post AY9944): trapped in punctate LE/Lys

CCN(CC)CCO[C@H]1CC[C@@]2(C)C(=CC[C@@H]3[C@@H]2CC[C@]2(C)C(=O)CC[C@@H]32)C1 [Compound U18666A]
free cholesterol storage and lipid endocytosis [1]: induce free cholesterol storage and abnormal lipid endocytosis
induction of NPC1 phenotype [1]: can induce an NPC1 phenotype

CCCCN1C[C@H](O)[C@@H](O)[C@H](O)[C@H]1CO [NB-DNJ, N-butyldeoxynojirimycin]
neurological side effects ([5]; adult mice): not to cause neurological side effects
CNS penetration ([5]; mouse, in vivo): penetrate the CNS
effects on behaviour or CNS development ([5]; mouse, in vivo): without significant effects on behaviour or CNS development
clinical benefit, saccadic eye movement [6]: stabilization or improvement in saccadic eye movement
factor by which liposomes reduced the required dose (mammalian cells): 1000
GSL storage in NPC1 cells [7]: reduction in GSL storage in the endo/lysosomal system; also recorded: lowers GSL storage in NPC1 cells to control levels
endosomal uptake [8]: improved endosomal uptake
lipid trafficking in peripheral blood B lymphocytes [8]: greatly improved
pathological lipid storage [8]: reduced
total late endosomal/lysosomal compartment [8]: almost normalised
endocytosis in NPC1 cells [9]: corrects abnormal endocytosis
decrease in GSL levels (onset) (GSL levels): measurable decrease in GSL levels within a day of treatment
treatment time after which effect on GSL levels stabilizes (GSL levels): 10 days

C[C@@H]1O[C@@H](O[C@H]2[C@H](O[C@H]3[C@H](O[C@H]4CC[C@@]5(C)[C@@H](CC[C@]6(C)[C@@H]5CC=C5[C@@H]7CC(C)(C)C[C@@H](O)[C@]7(C)CC[C@]56C)[C@@]4(C)CO)O[C@H](C(=O)O)[C@@H](O)[C@@H]3O)O[C@H](CO)[C@H](O)[C@@H]2O)[C@H](O)[C@H](O)[C@H]1O [Soyasaponin I]
sialyltransferase inhibition (sialyltransferase): potent and specific sialyltransferase inhibitor

CN(C)CCCN1c2ccccc2CCc2ccccc21 [imipramine]
free cholesterol storage and lipid endocytosis [1]: induce free cholesterol storage and abnormal lipid endocytosis

CC(=O)[C@H]1CC[C@H]2[C@@H]3CCC4=CC(=O)CC[C@]4(C)[C@H]3CC[C@]12C [progesterone]
free cholesterol storage and lipid endocytosis [1]: induce free cholesterol storage and abnormal lipid endocytosis
induction of NPC1 phenotype [1]: can induce an NPC1 phenotype

CCCO[C@H]1O[C@H](CO)[C@@H](O[C@@H]2O[C@H](CO)[C@H](O)[C@H](O)[C@H]2O)[C@H](OCCN2C(C)C(O)C(O)C(O)C2CO)[C@H]1NC(C)=O (stereo partly drawn) [propyl 2-acetamido-2-deoxy-4-O-(β-D-galactopyranosyl)-3-O-(2-(N-(β-L-homofuconojirimycinyl))ethyl)-α-D-glucopyranoside]
inhibition of human α-1,3-fucosyltransferase V [10]: effective inhibitor

cytidin-5′-yl sialylethylphosphonate
IC50 (rat recombinant α-2,3-ST): 47 µM
IC50 (rat recombinant α-2,6-ST): 340 µM
